Residues, ends and D or L forms follow the SMILES beside them. *: point of attachment. OiPr = CC(C)O* Bounds are passed on as bounds.

For the compound `CC(=O)C1C(=O)N(C(=O)NC(=O)c2ccccc2)c2ccccc21` (stereo not given), the melting point (as a rule, the temperature of the solid-liquid transition) came out at 198 °C. The result for `Cn1nnc(-c2ccc3c(c2)c(C2=CCN(CCc4nnn[nH]4)CC2)cn3-c2ccc(F)cc2)n1` reads 131 to 132 °C; that for `O=c1cc(-c2nnn[nH]2)occ1-c1ccccc1`, 237 to 238 °C; that for `CC(C)NC[C@H](O)COc1ccc(OCc2ccccc2)cc1`, 93 to 95 °C. The result for `CCOc1ccc(C)cc1NC(=O)Nc1ccc(N2CCN(C(=O)OC(C)(C)C)CC2)cc1` reads 105 to 107 °C; that for `CNc1nc(F)c(OC(F)F)c(Cl)n1`, 57 to 61 °C; that for `CCc1nnc(CCc2ccc([N+](=O)[O-])cc2)o1`, 65 to 66 °C.

Turning to `O=[N+]([O-])c1ccc(-c2nc(CO)no2)cc1`, the melting point is 155 to 156 °C. The value for `S=c1[nH]ccc2ccsc12` was 187 to 189 °C; that for `CCCCCc1c(-c2ccc3c(Br)c(OCC#N)ccc3c2)oc2ccccc12` was 111 to 113 °C.

In the case of `CCCCOc1cc2c(cc1C)C(=O)CC2(C)C`, the melting point is 59 °C. In turn, `CCCS(=O)(=O)N1CCC(c2nc3cc(-c4ccc(C(N)=O)c(F)c4)ccc3o2)CC1` displayed a melting point of 222 to 225 °C. Turning to `COC(=O)N(C)CC#CCn1ccnc1`, the melting point is 113 to 115 °C. The value for `Cc1nc2ccnn2c2c1CCN2Cc1ccccc1` was 130 °C; that for `Cc1c(C)c2c(c(C)c1O)CCC(C)(C#N)O2` (stereo not given) was 149 to 151 °C; that for `CCO/C(=C\c1ccc(C#N)cc1)C(=O)O` was 171 to 172 °C. The result for `NC(=O)NC(=O)c1ccncc1` reads 245 to 247 °C; that for `Fc1cccc2c1[nH]c1c2ccc2cc[nH]c21`, over 250 °C. Regarding `CC1=Nc2ccccc2C=C(c2ccccc2)N1C`, the melting point was 144 to 145 °C. The value for `CCSc1ccccc1N1CCN([C@@H]2Cc3c(OC)ccc(OC)c3C[C@H]2O)CC1` (relative stereo) was 171 to 173 °C; that for `C[Si](C)(O[Si](C)(C)c1cccnc1F)c1cccnc1F` was 41 to 42 °C. The value for `Cc1cccc(NC(=O)NC2N=C(c3ccccc3F)c3ccccc3N(Cc3ccc4ccccc4n3)C2=O)c1` (racemic) was 224 to 225 °C; that for `COc1ccc(Cl)cc1Cn1nc(-c2ccc(C(F)(F)F)cc2)oc1=O` was 144 to 145 °C. In the case of `COc1ccc(Nc2nnc(Cc3ccncc3)c3ccccc23)cc1`, the melting point was in the range of 223 to 224 °C. Consider `NS(=O)(=O)c1ccsc1CO`, for which the melting point is 85 to 89 °C. The result for `CCOC(=O)c1cnc2snc(C)c2c1N(Cc1cccnc1)S(=O)(=O)c1ccc(OC)cc1` reads 142 to 144 °C; that for `COc1ccc2c(c1)C(CCNC(C)=O)CCO2` (stereo not given), 138 °C. The result for `CCCCC[C@H]1CC[C@H](CCc2ccc(O)cc2)CC1` reads 102 °C; that for `CC(NC(=O)c1ccccc1)c1c[nH]c(-c2ccccc2)n1` (stereo not given), 132 to 135 °C; that for `CC(C)(NC(=O)CCn1cnc(C=O)c1)c1ccc(Cl)c(Cl)c1`, 161 to 163 °C. `Cc1ncoc1C(=O)c1ccccc1` had a melting point of 84 to 86 °C. `Cn1c2ccccc2c2cccc(N)c21` gave a melting point of 90 to 92 °C. With `Cc1c(S(=O)(=O)N(O)C(=N)Nc2ccc(Cl)c(Cl)c2)sc2ccc(Cl)cc12`, the melting point fell in the range of 232 to 233 °C. The result for `Cn1cc(-c2cccc([N+](=O)[O-])c2)c(=O)c(-c2cccc(C(F)(F)F)c2)c1` reads 209 to 211 °C; that for `O=[N+]([O-])c1ccc(F)c(-c2ccc(CO)cc2)c1`, 106 to 108 °C; that for `CC1(C)N=C(CCO)C2=C(N1)N(Cc1ccccc1)C(=O)C(N)O2` (stereo not given), 124 to 126 °C. The result for `CN(O)C(=O)Nc1cc(Cl)cc(Cl)c1` reads 131 to 132 °C. The value for `Cc1cc(Oc2ncc(C(F)(F)F)cc2Cl)nn1C(=O)Nc1ccc(C(F)(F)F)cc1` was 164 to 167 °C; that for `CCCc1nc2ccc(C(=O)c3ccccc3)cc2n1Cc1ccc(C(=O)O)cc1` was 295 to 296 °C; that for `O=C1N(c2c(Cl)cccc2Cl)Cc2cnc(Nc3ccccc3)nc2N1c1cccc(CCO)c1` was over 250 °C. Regarding `O=c1c2ncn(COCCO)c2nc2[nH]c(-c3ccc(Cl)s3)cn12`, the melting point was 226 to 228 °C. The result for `Cc1cccc(N2CCN(c3cc[nH]c(=S)c3C#N)CC2C)c1` (stereo not given) reads 250 to 251 °C; that for `COc1cc(O)c(C(=O)C=Cc2ccc(OCc3ccccc3)c(OC)c2)c(OC)c1`, 131 °C. The compound `COC(=O)N(C)c1ccc(OCc2nc3ccccc3s2)cc1` registered a melting point of 85 to 87 °C.

As for `CCOC(=O)Cn1nnnc1S(=O)(=O)c1ccc(C)cc1`, the melting point was in the range of 98 to 100 °C. The value for `CC(/C=C/C1=C(c2ccc3c(c2)C(C)(C)CCC3(C)C)CCCC1)=C\C(=O)O` was 198 to 199 °C. Consider `CCCCCCCCCCSC(=O)CS(=O)(=O)Nc1c(C(C)C)cccc1C(C)C`, for which the melting point lay in the range of 57 to 59 °C. The value for `Nc1ccc([N+](=O)[O-])cc1S(=O)(=O)CCO` was 175 °C; that for `CCCn1c(=O)c2c(nc(/C=C/c3ccc(OC(C)=O)c(OC)c3)n2C)n(CCC)c1=O` was 179 to 181 °C. The result for `COc1cc(N)c2c(c1)C(=O)CCN2` reads 107 to 110 °C; that for `COC(=O)C1CCc2cc(OCc3nc(-c4ccccc4)oc3C)ccc2C1O` (stereo not given), 146 to 147 °C. The value for `COCCC(=O)OC1(C(=O)COC(C)=O)CCC2C3CC(C)C4=CC(=O)C=CC4(C)C3C(O)CC21C` (stereo not given) was 162 °C; that for `COc1ccc(C(C)(C#N)CNC(=O)C(N)=O)cc1OC1CCCC1` (stereo not given) was 171 to 172 °C. As to `NC(=O)C1=CN(CCC(=O)NCCc2ccccc2)C=CC1`, the melting point lay in the range of 121 to 123 °C. The result for `COc1ccc(CNC(=O)c2cc3c(=O)n(CC#Cc4ccccc4)c(=O)n(C)c3s2)cc1` reads 168 to 171 °C. The result for `O=C(c1ccc(Cl)cc1)c1cc[nH]c1` reads 118 to 120 °C; that for `Oc1c(C(=Nc2ccccc2)Nc2ccccc2)sc2ccccc12`, 152 to 153 °C; that for `CS(=O)(=O)Nc1ccc(CCOS(C)(=O)=O)cc1`, 134 to 136 °C. `CCc1nc(C(=O)NCCc2ccc(S(N)(=O)=O)cc2)no1`: the melting point is 159 to 160 °C. The result for `O=C1N=C(N2CCOCC2)SC1=Cc1cc(-c2ccccc2)cc(-c2ccc(O)c(C34CC5CC(CC(C5)C3)C4)c2)c1` reads 315 to 320 °C; that for `O=S(=O)(NCCCN1CCC(Oc2ccc(F)c(F)c2)CC1)c1ccc(-c2ccccn2)s1`, 128 to 129 °C; that for `CCN(CC)Cc1ccc(-c2cccc(-c3ccnc4c(C(=O)c5cccs5)cnn34)c2)cc1`, 144 to 146 °C. Compound `CC1C(=O)c2ccccc2C1NCCc1ccccc1` (stereo not given) showed a melting point of 82 to 83 °C. The value for `COC1(c2ccc(C)cc2)CCC(=O)CC1` was 76 to 76.5 °C; that for `CCOC(=O)/C(=C/c1coc2cc(OC)ccc2c1=O)Cc1cc2c(cc1OC)OCO2` was 140 to 141 °C; that for `CC(=O)Nc1nc(-c2ccccc2)c(-c2ccnc(Nc3ccccc3)n2)s1` was over 260 °C. On to `FC(F)(F)c1cccc(CCc2nnc(-c3ccc4ncsc4c3)o2)c1`, for which the melting point was 126 to 127 °C. The result for `CCN(CC)CC(C)N1c2ccccc2Sc2ccc(C(N)=S)cc21` (stereo not given) reads 180 °C; that for `COc1cccc([C@H]2O[C@H](CC(=O)NCCc3occc3C(=O)O)C(=O)N(CC(C)(C)CO)c3ccc(Cl)cc32)c1OC`, 126 to 129 °C; that for `CCNC(=O)c1cnc(SC)nc1Nc1ccc2[nH]ncc2c1`, 252 to 254 °C.

For `NC(=O)c1nc(-c2cccnc2)nc2c1[nH]c(=O)n2Cc1ccccc1`, the melting point was 334 to 335 °C. The result for `Fc1ccc(-n2nc(N3CCNCC3)c3ccccc32)cc1` reads 85 to 87 °C; that for `CCc1cnc2ccnn2c1NCc1ccc(-c2ccccc2C#N)cc1`, 151 to 153 °C; that for `COc1cc(N(C)C)ccc1CN1C(=O)C(C)(c2ccccc2Cl)c2cc(Cl)ccc21` (stereo not given), 135 °C. In turn, `CNC(=O)NCCN1CCC(Nc2nc3ccccc3n2Cc2ccc(F)cc2)C1` (stereo not given) gave a melting point of 161 °C.

In turn, `COc1ccc2ccc(NC(=O)c3c[nH]c4c3C(=O)CCC4)nc2n1` showed a melting point of 173 to 181 °C. With `CC(=O)Oc1ccc2c(c1)C(=O)NC(C(Cl)(Cl)Cl)O2` (stereo not given), the melting point lay within 201 to 203 °C. The result for `CSC(=S)NN=Cc1nc[nH]c1C` reads 180 °C. The result for `CS(=O)(=O)Nc1cc([N+](=O)[O-])ccc1F` reads 128 to 129 °C; that for `CC1c2ccccc2-c2ccccc2N1S(=O)(=O)c1ccc(O)cc1` (stereo not given), 196 to 198 °C. The result for `CCOC(=O)C1=Cc2cc(-c3ccc(OCC)cc3)ccc2OCC1` reads 124 to 127 °C; that for `c1ccc2nc(N3CCNCC3)ncc2c1`, 64 to 66 °C; that for `Nc1cc(N2CCOCC2)cc(C(F)(F)F)c1`, 96 to 97 °C.

In turn, `COc1ccnc(C(C)S(=O)c2nc3cc(OC(F)(F)C(F)F)ccc3[nH]2)c1` (stereo not given) returned a melting point of 156 to 157 °C.

`CCCn1c(=O)c2c(nc(/C=C/c3cc(OC(C)=O)cc(OC(C)=O)c3)n2C)n(CCC)c1=O` gave a melting point of 224 to 225 °C. Take `COc1ccc(S(=O)(=O)C(C)(Cc2ccccc2Br)C(=O)NO)cc1` (stereo not given): the melting point was in the range of 93 to 96 °C. Regarding `CC(C)OC(=O)C(CO)NC(=O)C(CC(=O)O)NC(=O)C(C)N` (stereo not drawn) (H-Ala-Asp-Ser-OiPr; configuration not given here), the melting point lay in the range of 222 to 234 °C. The result for `OCC1OC(n2c(S)nc3c(NCc4ccccc4)ncnc32)C(O)C1O` (stereo not given) reads 145 to 148 °C; that for `O=C1C=C(c2ccc(F)cc2)CN1`, 190 °C; that for `COc1cc(CBr)c(OC)cc1/C=C/c1cc(OC)c(CBr)cc1OC`, 165 to 167 °C.

(Values after a melting point compilation (Tetko et al.; mined from patent text by program, amines drawn as free bases though some values may be those of a salt).)
